# Laboratory results: patent US8188135B2, “Compounds as cannabinoid receptor ligands” (priority 2008, dated 2012)
# Where “and” joins values, the source holds several entries; their conditions need not be identical. Equal entries are not always repeated. Where two headings read alike, the source gives them in different places.
# Tests used:
# [1] = molecular target: T1, human CB2 receptors (Homo sapiens, UniProt P34972); experiment: human CB2 radioligand binding assay ([3H]CP 55,940 competition); settings: human CB2 (Ki, nM), HEK293 membranes, 0.5 nM [3H]CP 55,940
# T1 construct: expressed in transfected cells; host or cells: HEK293
# Procedure, shortened: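 Membranes from HEK293 cells stably expressing human CB2 (5 μg protein/well) competed against 0.5 nM [3H]CP 55,940 with five concentrations of test ligand (0.01 nM to 10 μM), pH 7.4 Tris buffer with BSA, 90 min at 30 °C. Filtration and scintillation counting; nonspecific binding with 10 μM unlabeled CP 55,940.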
# [2] = molecular target: T2, Rat CB1 (Rattus norvegicus, UniProt P20272); experiment: rat CB1 cyclase functional assay (HitHunter cAMP); type: cell-based; settings: HEK cells, forskolin 37 μM
# T2 construct: expressed in transfected cells; host or cells: HEK
# Description: (§1) The cyclase functional assays were performed using the HitHunter™ cAMP assay kit from DiscoveRx (Fremont, Calif.) according to vendor's protocol. Briefly, HEK cells expressing CB2 or CB1 receptors (rat or human) were detached using cell dissociation buffer (Invitrogen, Carlsbad, Calif.), dispersed and placed in suspension at 10,000 cells per well in 96 well plates prior to the assay. Cell suspensions were incubated at 37° C. for 20 min with variable concentrations of test ligands and or 10 μM CP 55,940-positive control in the presence of a fixed concentration of forskolin (18 μM for rat CB2 and 37 μM for rat CB1) in Dulbescco's phosphate-buffered saline (Invitrogen, Carlsbad, Calif.) supplemented with bovine serum albumin (0.01% final concentration). The reactions were terminated by the addition of lysis buffer and the luminescence was detected following the procedure according to the manufacturer's instructions. EC50 values were calculated using sigmoidal dose-response curve fitting from Prism (GraphPad).
# [3] = molecular target: T3, rat CB2 (Rattus norvegicus, UniProt Q9QZN9); experiment: rat CB2 cyclase functional assay (HitHunter cAMP); type: cell-based; design: expressed in transfected cells; host or cells: HEK; settings: rat CB2 cyclase (EC50, nM), HEK cells, forskolin 18 μM
# T3 sequence (Q9QZN9 1-360): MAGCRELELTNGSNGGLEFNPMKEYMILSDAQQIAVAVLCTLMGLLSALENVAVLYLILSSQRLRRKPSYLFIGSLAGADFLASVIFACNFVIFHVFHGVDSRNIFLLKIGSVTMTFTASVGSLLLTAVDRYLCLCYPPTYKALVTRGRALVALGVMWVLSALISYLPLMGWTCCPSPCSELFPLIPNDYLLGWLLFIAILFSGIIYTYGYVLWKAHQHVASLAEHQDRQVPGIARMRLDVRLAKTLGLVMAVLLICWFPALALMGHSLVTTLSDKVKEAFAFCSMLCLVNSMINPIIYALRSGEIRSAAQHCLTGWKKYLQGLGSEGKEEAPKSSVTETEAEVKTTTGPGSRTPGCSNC
# Description: as §1
# [4] = molecular target: T3, rat CB2; experiment: rat CB2 radioligand binding assay ([3H]CP 55,940 competition); design: expressed in transfected cells; host or cells: HEK293; settings: rat CB2 (Ki, nM), HEK293 membranes, 0.5 nM [3H]CP 55,940
# Procedure, shortened: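 Membranes (20 μg protein/well) from HEK293 cells stably expressing the receptor were incubated 45 min at 30 °C with 0.5 nM [3H]CP 55,940 and five concentrations of test compound (0.01 nM–10 μM) in Tris/EDTA/MgCl2/BSA buffer, pH 7.4. Bound ligand was measured by GF/C filtration and scintillation counting; 10 μM CP 55,940 defined nonspecific binding.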
# [5] = pharmacokinetic studies in rats; settings: male, Sprague-Dawley, rat; for half-life: in vivo, 3 micromole/kg; for half-life / clearance: iv; for bioavailability: po
# Description: Male Sprague-Dawley rats, weighing 250-400 g, were obtained from Charles Rivers Laboratories. Pharmacokinetic studies were conducted in three groups of rats; each group contained three animals. All groups were dosed with a solution formulation. The first group of three rats received an intravenous dose, administered under isoflurane anesthetic. The second group received an intraperitoneal dose and the third group received an oral dose, administered by gavage. Sequential blood samples were obtained from a tail vein of each animal for 8-24 hours after dosing. Plasma was separated by centrifugation and stored frozen until analysis.
# Half life […] and plasma clearance values are based on intravenous administration (3 micromole/kg).
# Half life (t1/2) and plasma clearance values are based on intravenous administration (3 micromole/kg).
# [6] = read-out: Rat CB1 cyclase (EC50)
# T2 sequence (P20272 whole entry): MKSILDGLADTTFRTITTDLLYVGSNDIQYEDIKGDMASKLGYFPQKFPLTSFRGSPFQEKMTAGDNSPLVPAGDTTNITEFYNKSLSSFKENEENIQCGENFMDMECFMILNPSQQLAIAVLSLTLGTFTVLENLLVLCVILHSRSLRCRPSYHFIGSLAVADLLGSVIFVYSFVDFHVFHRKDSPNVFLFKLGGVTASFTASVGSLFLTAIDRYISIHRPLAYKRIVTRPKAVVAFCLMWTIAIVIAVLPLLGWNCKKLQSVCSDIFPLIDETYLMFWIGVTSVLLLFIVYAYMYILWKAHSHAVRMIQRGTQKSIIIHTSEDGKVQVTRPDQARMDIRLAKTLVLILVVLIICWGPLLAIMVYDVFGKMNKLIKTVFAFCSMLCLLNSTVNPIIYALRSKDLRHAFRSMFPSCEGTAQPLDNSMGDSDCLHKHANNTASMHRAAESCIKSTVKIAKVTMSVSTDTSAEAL
# T1 sequence (P34972 whole entry): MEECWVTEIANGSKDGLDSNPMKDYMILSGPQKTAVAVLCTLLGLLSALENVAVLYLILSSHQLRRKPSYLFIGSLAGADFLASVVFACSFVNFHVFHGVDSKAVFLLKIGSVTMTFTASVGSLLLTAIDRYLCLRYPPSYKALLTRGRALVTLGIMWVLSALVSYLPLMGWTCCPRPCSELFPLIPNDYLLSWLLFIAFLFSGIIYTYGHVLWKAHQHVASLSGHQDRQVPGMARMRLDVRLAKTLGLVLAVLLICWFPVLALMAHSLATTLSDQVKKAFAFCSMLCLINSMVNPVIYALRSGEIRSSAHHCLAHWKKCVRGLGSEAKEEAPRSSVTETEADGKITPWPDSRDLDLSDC
Structure (SMILES),Ki [1],"EC50 ([2]; Rat CB1 cyclase (EC50, nM)) [nM]",EC50 [3],Ki [4],half-life [5] [min],clearance [5] [mL/min/kg],bioavailability [5] [%],"EC50 [2, 6] [nM]"
"CC1CCC(COc2ccc(C(F)(F)F)cc2C(=O)N=c2cc(C(C)(C)C)n(C)n2CC2CCCO2)O1 (single isomer, unassigned) [Example 36]",74 nM,8410,2.7 nM,108 nM,,,,
"CC1CCC(COc2ccc(C(F)(F)F)cc2C(=O)N=c2cc(C(C)(C)C)n(C)n2CC2CCCO2)O1 (single isomer, unassigned) [Example 37]",57 nM,8590,0.45 nM,16 nM,,,,
"Cn1c(C(C)(C)C)c/c(=N\C(=O)c2cc(C(F)(F)F)ccc2OC[C@H]2CCCO2)n1C[C@H]1CCCO1 [Example 1, N-{(3E)-5-tert-butyl-1-methyl-2-[(2R)-tetrahydrofuran-2-ylmethyl]-1,2-dihydro-3H-pyrazol-3-ylidene}-2-[(2R)-tetrahydrofuran-2-ylmethoxy]-5-(trifluoromethyl)benzamide]",51 nM,5510,1.1 nM,23 nM,,,,
"Cn1c(C(C)(C)C)c/c(=N\C(=O)c2cc(C(F)(F)F)ccc2OC[C@@H]2CCN2)n1C[C@H]1CCCO1 [Example 2, 2-[(2S)-azetidin-2-ylmethoxy]-N-{(3E)-5-tert-butyl-1-methyl-2-[(2R)-tetrahydrofuran-2-ylmethyl]-1,2-dihydro-3H-pyrazol-3-ylidene}-5-(trifluoromethyl)benzamide]",> 1000 nM,11200,0.77 nM,195 nM,,,,
"Cn1c(C(C)(C)C)c/c(=N\C(=O)c2cc(C(F)(F)F)ccc2OCC2CCS(=O)(=O)C2)n1C[C@H]1CCCO1 (stereo partly drawn) [Example 6, N-{(3E)-5-tert-butyl-1-methyl-2-[(2R)-tetrahydrofuran-2-ylmethyl]-1,2-dihydro-3H-pyrazol-3-ylidene}-2-[(1,1-dioxidotetrahydrothien-3-yl)methoxy]-5-(trifluoromethyl)benzamide]",203 nM,11200,7.5 nM,78 nM,,,,
"CCCCn1nc(C(C)(C)C)s/c1=N\C(=O)c1cc(C(F)(F)F)ccc1OCC1CCCCN1C (centres unmarked) [Example 7, N-[(2Z)-3-butyl-5-tert-butyl-1,3,4-thiadiazol-2(3H)-ylidene]-2-[(1-methylpiperidin-2-yl)methoxy]-5-(trifluoromethyl)benzamide]",2.5 nM,1060,2.9 nM,2.5 nM,,,,
"Cn1c(C(C)(C)C)c/c(=N\C(=O)c2cc(C(F)(F)F)ccc2OC[C@@H]2CCCO2)n1C[C@H]1CCCO1 [Example 8, N-{(3E)-5-tert-butyl-1-methyl-2-[(2R)-tetrahydrofuran-2-ylmethyl]-1,2-dihydro-3H-pyrazol-3-ylidene}-2-[(2S)-tetrahydrofuran-2-ylmethoxy]-5-(trifluoromethyl)benzamide]",13 nM,6340,0.59 nM,4.3 nM,,,,
"Cn1c(C(C)(C)C)c/c(=N\C(=O)c2cc(C(F)(F)F)ccc2OC[C@@H]2CCC(=O)N2)n1C[C@H]1CCCO1 [Example 12, N-{(3E)-5-tert-butyl-1-methyl-2-[(2R)-tetrahydrofuran-2-ylmethyl]-1,2-dihydro-3H-pyrazol-3-ylidene}-2-{[(2S)-5-oxopyrrolidin-2-yl]methoxy}-5-(trifluoromethyl)benzamide]",99 nM,> 27000,0.79 nM,46 nM,,,,
Cn1c(C(C)(C)C)c/c(=N\C(=O)c2cc(C(F)(F)F)ccc2OCCN2CCCC2=O)n1C[C@H]1CCCO1 [Example 15],193 nM,> 27000,1.4 nM,203 nM,,,,
"Cn1c(C(C)(C)C)c/c(=N\C(=O)c2cc(C(F)(F)F)ccc2OC[C@@H]2COC(C)(C)O2)n1C[C@H]1CCCO1 [Example 16, N-{(3E)-5-tert-butyl-1-methyl-2-[(2R)-tetrahydrofuran-2-ylmethyl]-1,2-dihydro-3H-pyrazol-3-ylidene}-2-{[(4R)-2,2-dimethyl-1,3-dioxolan-4-yl]methoxy}-5-(trifluoromethyl)benzamide]",40 nM,> 27000,0.47 nM,23 nM,,,,
"Cn1c(C(C)(C)C)c/c(=N\C(=O)c2cc(C(F)(F)F)ccc2OCC[C@H]2COC(C)(C)O2)n1C[C@H]1CCCO1 [Example 17, N-{(3E)-5-tert-butyl-1-methyl-2-[(2R)-tetrahydrofuran-2-ylmethyl]-1,2-dihydro-3H-pyrazol-3-ylidene}-2-{2-[(4S)-2,2-dimethyl-1,3-dioxolan-4-yl]ethoxy}-5-(trifluoromethyl)benzamide]",25 nM,> 27000,0.7 nM,36 nM,,,,
"CN1CCC[C@H]1COc1ccc(C(F)(F)F)cc1C(=O)/N=c1\sc(C(C)(C)C)nn1C[C@H]1CCCO1 [Example 69, N-[(2Z)-5-tert-butyl-3-[(2R)-tetrahydrofuran-2-ylmethyl]-1,3,4-thiadiazol-2(3 H)-ylidene]-2-{[(2S)-1-methylpyrrolidin-2-yl]methoxy}-5-(trifluoromethyl)benzamide]",10 nM and 14 nM,,0.93 nM and 0.16 nM,19 nM and 5 nM,,,,
"Cn1c(C(C)(C)C)c/c(=N\C(=O)c2cc(C(F)(F)F)ccc2OCC(C)(C)O)n1CC1CC1 [Example 71, N-[(3E)-5-tert-butyl-2-(cyclopropylmethyl)-1-methyl-1,2-dihydro-3H-pyrazol-3-ylidene]-2-(2-hydroxy-2-methylpropoxy)-5-(trifluoromethyl)benzamide]",38 nM,4280,,8.5 nM,282,5,46,
"C[C@@H](O)COc1ccc(C(F)(F)F)cc1C(=O)/N=c1\cc(C(C)(C)C)n(C)n1C[C@H]1CCCO1 [Example 91, N-{(3E)-5-tert-butyl-1-methyl-2-[(2R)-tetrahydrofuran-2-ylmethyl]-1,2-dihydro-3 H-pyrazol-3-ylidene}-2-{[(2R)-2-hydroxypropyl]oxy}-5-(trifluoromethyl)benzamide]",38 nM,,,18 nM,150,31.7,33,> 27000
"Cn1c(C(C)(C)C)c/c(=N\C(=O)c2cc(C#N)ccc2OCC(C)(C)O)n1CC1CCC1 [Example 113, N-[(3E)-5-tert-butyl-2-(cyclobutylmethyl)-1-methyl-1,2-dihydro-3H-pyrazol-3-ylidene]-5-cyano-2-(2-hydroxy-2-methylpropoxy)benzamide]",54 nM,,,28 nM,204,20,100,> 27000
"CCCCCn1/c(=N/C(=O)c2cc(C#N)ccc2OCC(C)(C)O)cc(C(C)(C)C)n1C [Example 115, N-[(3E)-5-tert-butyl-1-methyl-2-pentyl-1,2-dihydro-3H-pyrazol-3-ylidene]-5-cyano-2-(2-hydroxy-2-methylpropoxy)benzamide]",81 nM,,,17 nM,36,30,7,> 27000
